Holding throughout (assay type): cell-based, Staphylococcus aureus
For one experiment, the system named is sbnB::Tet mutant. The note with it: iron-restricted media / serum. The text has this: SbnB encodes a putative ornithine cyclodeaminase and may work in concert with SbnA to produce L-2,3-diaminopropionic acid, a likely precursor for staphylobactin. Ornithine cyclodeaminases mediate the deamination of ornithine and cyclization to proline and depended on NAD+. A mutation in sbnB was created by insertion of a Tet cassette. […] While proline is unlikely to be a siderophore precursor, ammonia may be a desired product for staphylobactin biosynthesis. […] Further, we observed in a mouse kidney abscess experiment, sbnB deficient strains were compromised for virulence (data not shown, n=7 mice).

In experiment [1] the test system is sbnD mutant and wild type strains. The experiment can be described thus: MIC comparison of sbnD mutant and wild type strains. The note with it: sbnD::Km mutant versus wild type. From the text:
SbnD encodes a putative multi-drug efflux pump. A mutation in sbnD was created by insertion of a Km cassette.

In a further experiment the test system is S. aureus RN6390. The experiment can be described thus: Siderophore plate bioassay (promotion of iron-restricted growth). The note with it: HPLC-isolated peak from culture supernatant of RN6390 fur::Km; TMS medium with 20 μM EDDHA. As to the method:
The ability of siderophores to promote the iron-restricted growth of S. aureus was assessed using siderophore plate bioassays, performed as previously described (Sebulsky et al., (2000) J. Bacteriol. 182:4394-4400). Briefly, S. aureus RN6390 was incorporated into solid TMS medium (1.4×10^4 cells/ml) containing 20 μM EDDHA. The ability of purified siderophores to promote growth of S. aureus was assessed after incubation of plates for 36 hours at 37° C.

For the compound `NCC(N)C(=O)O` (centres unmarked) [diaminopropionic acid], the “rescue of the iron-restricted growth phenotype of the sbnB mutant by added compound” value in the experiment on sbnB::Tet mutant was “can be overcome”. In the case of `CCn1cc(C(=O)O)c(=O)c2ccc(C)nc21` [nalidixic acid], the “difference in MIC (minimum inhibitory concentration) values between sbnD mutant and wild type strains” value in experiment [1] is listed as “No difference”. Same read-out and setting: the entry for `CCn1cc(C(=O)O)c(=O)c2cc(F)c(N3CCNCC3)cc21` [norfloxacin] is “No difference”. As to `O=C(O)[C@@H]1CCCN1` [proline], the “rescue of the iron-restricted growth phenotype of the sbnB mutant by added compound” value in the experiment with sbnB::Tet mutant is given as “does not bypass the sbnB mutation”.

For staphylobactin, the “biological activity in siderophore plate bioassays (promotion of iron-restricted growth of S. aureus)” value with S. aureus RN6390 is reported as “retained biological activity”.

These data come from patent publication US20110206685A1, “SCREENING ASSAYS FOR INHIBITORS OF A STAPHYLOCOCCUS AUREUS SIDEROPHORE” (priority 2004, published 2011).
